Drawing on ChEMBL document CHEMBL3046375, “Antifungal activity of simple compounds with maleic anhydride or dimethylmaleimide structure against Botrytis cinerea” (J Pestic Sci, 2012), this text covers MIC for 46 compounds.

Converted amounts (≈) assume the structure as drawn. A value given as a limit tells only on which side of the number the result lay.

The subject of the first experiment is Botrytis cinerea. The experiment is described as follows: Antifungal actiivty against Botryotinia fuckeliana ACCC 30387 assessed as inhibition of radial growth after 3 days. The experiment is classed as functional. The settings on record: ACCC 30387, 72 h.
For `CC1=C(C)C(=O)N(Cc2ccccc2)C1=O`, the MIC turned out to be 5 mg/L (≈ 23.2 µM).

`CC1=C(C)C(=O)N(CCc2ccccc2)C1=O`: the minimum inhibitory concentration (MIC) came out at 75 mg/L (≈ 327 µM).

Turning to `CC1=C(C)C(=O)N(CCCc2ccccc2)C1=O`, the MIC is 10 mg/L (≈ 41.1 µM).

Consider `Cc1ccc2c(c1)C(=O)OC2=O`, for which the minimal inhibitory concentration (MIC) is greater than 1000 mg/L.

In the case of `O=C(O)c1ccc2c(c1)C(=O)OC2=O`, the minimal inhibitory concentration (MIC) is greater than 1000 mg/L.

Turning to `O=C1OC(=O)c2c(F)cccc21`, the MIC amounted to 500 mg/L (≈ 3010 µM).

Consider `O=C1OC(=O)c2c(F)ccc(F)c21`, for which the minimal inhibitory concentration (MIC) was 150 mg/L (≈ 815 µM).

With `O=C1OC(=O)c2c(F)c(F)c(F)c(F)c21`, the MIC was 500 mg/L (≈ 2270 µM).

In the case of `O=C1OC(=O)c2cc(Cl)c(Cl)cc21`, the MIC came to 500 mg/L (≈ 2300 µM).

As for `O=C1OC(=O)c2c1ccc(Cl)c2Cl`, the MIC is greater than 1000 mg/L.

For `O=C1OC(=O)c2c(Cl)ccc(Cl)c21`, the MIC is greater than 1000 mg/L.

In the case of `O=C1C=C(Br)C(=O)O1`, the minimal inhibitory concentration (MIC) was determined as 1000 mg/L (≈ 5650 µM).

In the case of `O=C1C=C(c2ccccc2)C(=O)O1`, the MIC came out at 150 mg/L (≈ 861 µM).

Take `O=C1OC(=O)C(c2ccccc2)=C1c1ccccc1`: the MIC was 20 mg/L (≈ 79.9 µM).

As to `O=C1OC(=O)C(Cl)=C1Cl`, the minimum inhibitory concentration (MIC) worked out at 100 mg/L (≈ 599 µM).

Regarding `CC1=C(C)C(=O)OC1=O`, the MIC was 3 mg/L (≈ 23.8 µM).

On to `CC1=C(CBr)C(=O)OC1=O`, for which the MIC is 10 mg/L (≈ 48.8 µM).

Regarding `CC1=C(CO)C(=O)OC1=O`, the minimum inhibitory concentration (MIC) is greater than 1000 mg/L.

With `CCOC(=O)C(CC1=C(C)C(=O)OC1=O)C(=O)OCC`, the minimal inhibitory concentration (MIC) worked out at 8 mg/L (≈ 28.1 µM).

Consider `CC1=C(CCC(=O)O)C(=O)OC1=O`, for which the minimal inhibitory concentration (MIC) was 80 mg/L (≈ 434 µM).

Take `O=C1OC(=O)C(CBr)=C1CBr`: the minimal inhibitory concentration (MIC) was found to be 125 mg/L (≈ 440 µM).

Turning to `CCCC1=C(C)C(=O)OC1=O`, the MIC amounted to 25 mg/L (≈ 162 µM).

With `CCCCCC1=C(C)C(=O)OC1=O`, the minimum inhibitory concentration (MIC) amounted to 5 mg/L (≈ 27.4 µM).

Turning to `CCCCCCC1=C(C)C(=O)OC1=O`, the minimum inhibitory concentration (MIC) was determined as 4 mg/L (≈ 20.4 µM).

For `CCCCCCCCCCC1=C(C)C(=O)OC1=O`, the MIC amounted to 3 mg/L (≈ 11.9 µM).

For the compound `CC(=O)OCC1=C(C)C(=O)OC1=O`, the minimal inhibitory concentration (MIC) came to 20 mg/L (≈ 109 µM).

`CC1=C(COC(=O)c2ccccc2)C(=O)OC1=O`: the minimum inhibitory concentration (MIC) was 15 mg/L (≈ 60.9 µM).

Take `CC1=C(CNc2cc(Cl)cc(Cl)c2)C(=O)OC1=O`: the minimal inhibitory concentration (MIC) was found to be 50 mg/L (≈ 175 µM).

For the compound `CCCCN1C(=O)C(C)=C(C)C1=O`, the minimum inhibitory concentration (MIC) worked out at 5 mg/L (≈ 27.6 µM).

For the compound `CC1=C(C)C(=O)N(CC(C)C)C1=O`, the MIC turned out to be 50 mg/L (≈ 276 µM).

Take `CCCCCN1C(=O)C(C)=C(C)C1=O`: the minimal inhibitory concentration (MIC) stood at 5 mg/L (≈ 25.6 µM).

As to `CCCCCCN1C(=O)C(C)=C(C)C1=O`, the minimum inhibitory concentration (MIC) was determined as 5 mg/L (≈ 23.9 µM).

For `CCCCCCCCN1C(=O)C(C)=C(C)C1=O`, the minimal inhibitory concentration (MIC) stood at 50 mg/L (≈ 211 µM).

`CCCCCCCCCCCCN1C(=O)C(C)=C(C)C1=O`: the minimum inhibitory concentration (MIC) was determined as 50 mg/L (≈ 170 µM).

For the compound `CC1=C(C)C(=O)N(C2CCCCC2)C1=O`, the minimal inhibitory concentration (MIC) came to 10 mg/L (≈ 48.2 µM).

`CC1=C(C)C(=O)N(c2ccc(C)cc2)C1=O`: the minimum inhibitory concentration (MIC) turned out to be 5 mg/L (≈ 23.2 µM).

`CC1=C(C)C(=O)N(c2ccc(Cl)cc2)C1=O`: the minimal inhibitory concentration (MIC) is 10 mg/L (≈ 42.4 µM).

Regarding `CC1=C(C)C(=O)N(c2cc(Cl)cc(Cl)c2)C1=O`, the MIC was determined as 0.1 mg/L (≈ 0.37 µM).

Turning to `CC1=C(C)C(=O)N(c2cccc([N+](=O)[O-])c2C)C1=O`, the MIC is 10 mg/L (≈ 38.4 µM).

Regarding `CC1=C(C)C(=O)N(c2nc3ccccc3[nH]2)C1=O`, the minimal inhibitory concentration (MIC) was found to be 10 mg/L (≈ 41.5 µM).

`CC1=C(C)C(=O)N(c2ccc(F)c(F)c2F)C1=O`: the MIC turned out to be 1 mg/L (≈ 3.92 µM).

On to `CC1=C(C)C(=O)N(c2ccccc2)C1=O`, for which the MIC turned out to be 1 mg/L (≈ 4.97 µM).

As for `Nc1c(Cl)cc([N+](=O)[O-])cc1Cl` [ALLISAN], the MIC stood at 0.1 mg/L (≈ 0.483 µM).

Turning to `O=C1C=CC(=O)O1` [MALEIC ANHYDRIDE], the MIC amounted to 250 mg/L (≈ 2550 µM).

For the compound `O=C1OC(=O)c2ccccc21` [PHTHALIC ANHYDRIDE], the MIC is greater than 1000 mg/L.

In the next experiment the test system is Botrytis cinerea. As to the kind of experiment: Antifungal actiivty against Botryotinia fuckeliana. The experiment is classed as functional.
Conditions: not given
In turn, `CCCCC1CC2=C(CC(C(O)CCCC)C3=C1C(=O)OC3=O)C(=O)OC2=O` (stereo unspecified) showed an MIC of 0.78 mg/L (≈ 2 µM).
